Results on 81 molecules are retold here after a flash point compilation (Sun et al. 2020).

As for `S=C([S-])NCCNC(=S)[S-].S=C([S-])NCCNC(=S)[S-].[Mn+2].[Zn+2]`, the flash point was 138.00 °C.
In turn, `S=C([S-])NCCNC(=S)[S-].[Mn+2]` registered a flash point of 138.00 °C.
The same measure for `NCCNCCNCCNCCN`: 163.00 °C.
Regarding `Cl.O=C(O)CCP(CCC(=O)O)CCC(=O)O`, the flash point came to 202.00 °C.
The same measure for `O=C1OC(=O)c2cccc3cccc1c23`: 272.00 °C.
On to `O=P1(N(CCCl)CCCl)NCCCO1` (stereo unspecified), for which the flash point is 113.00 °C.
`C=C1C(CCl)(CCl)C2(Cl)C(Cl)C(Cl)C1(Cl)C2(Cl)Cl` (stereo unspecified) gave a flash point of 29.00 °C.
The same measure for `C=C1CCC=C(C)CC[C@@H]2[C@@H]1CC2(C)C`: 101.00 °C; for `CC(C)(C)c1cc(CCC(=O)OCC(COC(=O)CCc2cc(C(C)(C)C)c(O)c(C(C)(C)C)c2)(COC(=O)CCc2cc(C(C)(C)C)c(O)c(C(C)(C)C)c2)COC(=O)CCc2cc(C(C)(C)C)c(O)c(C(C)(C)C)c2)cc(C(C)(C)C)c1O`: 297.00 °C; for `CC(C)(c1ccc(OC[C@@H]2CO2)cc1)c1ccc(OC[C@@H]2CO2)cc1`: 79.00 °C.
The same measure for `CC(C)=CCC/C(C)=C\CC/C(C)=C/CC/C=C(\C)CC/C=C(\C)CCC=C(C)C`: 110.00 °C.
As for `CC(C)C(=O)OCC(C)(C)C(OC(=O)C(C)C)C(C)C` (stereo unspecified), the figure is 121.00 °C; as for `CC(C)Nc1nc(Cl)nc(NC2CC2)n1`, 163.00 °C.
For the molecule `CC(C)[C@H](C(=O)O[C@H](C#N)c1cccc(Oc2ccccc2)c1)c1ccc(Cl)cc1`, the flash point was 256.00 °C.
On to `CC1(C)C2CCC1(C)C(OC(=O)CSC#N)C2` (stereo unspecified), for which the flash point came out at 82.00 °C.
As for `Cc1c(COC(=O)C2C(C=C(Cl)C(F)(F)F)C2(C)C)cccc1-c1ccccc1` (stereo unspecified), the figure is 165.00 °C; as for `CC1=C(C(=O)Nc2ccccc2)S(=O)(=O)CCO1`, 219.00 °C.
For the molecule `Cc1cc(O)c(C(C)(C)C)cc1Sc1cc(C(C)(C)C)c(O)cc1C`, the flash point turned out to be 216.00 °C.
Regarding `C=Cc1ccc(C)cc1.C=Cc1cccc(C)c1.C=Cc1ccccc1C`, the flash point worked out at 52.00 °C.
As for `CC1=C[C@H]2C(=O)O[C@H]3C[C@@H](C/C=C(\C)C[C@@H](C)/C=C/C=C4\CO[C@H]([C@@H]1O)[C@@]42O)O[C@@]1(CC[C@H](C)[C@@H](C)O1)C3`, the figure is 43.00 °C; as for `C=C(C)C1CCC2=CC(=O)CC(C)C2(C)C1` (stereo unspecified), 100.00 °C.
`CCC1CCC(CCC(=O)[O-])C1.CCC1CCC(CCC(=O)[O-])CC1.[Cu+2]` (stereo unspecified): the flash point is 38.00 °C.
As for `CCCCC(CC)Cc1c(C(=O)OOOC(=O)c2cc(O)c(O)c(O)c2)cc(O)c(O)c1O` (stereo unspecified), the figure is 232.00 °C.
Regarding `CCCCCC1OC1CC1OC1CCCCCCCC(=O)OCC(COC(=O)CCCCCCCC1OC1CC1OC1CCCCC)OC(=O)CCCCCCCC1OC1CC1OC1CCCCC` (stereo unspecified), the flash point was 307.00 °C.
In the case of `CCCCCCCCCc1ccc(OCCOCCOCCOCCOCCOCCOCCOCCOCCO)cc1`, the flash point turned out to be 197.00 °C.
As for `CCCCOC(=O)COC(=O)c1ccccc1C(=O)OCCCC`, the figure is 199.00 °C; as for `CCCNCC(O)COc1ccccc1C(=O)CCc1ccccc1` (stereo unspecified), 199.00 °C.
Molecule `CCCOP(=S)(OCCC)OP(=S)(OCCC)OCCC` registered a flash point of 149.00 °C.
In turn, `CCOP(=S)(OCC)Oc1cc(C)nc(N(CC)CC)n1` showed a flash point of 113.00 °C.
`CCOP(=S)(OCC)Oc1ccc([N+](=O)[O-])cc1` registered a flash point of 120.00 °C.
As for `CCOP(=S)(OCC)Oc1nc(Cl)c(Cl)cc1Cl`, the figure is 28.00 °C; as for `CCOP(=S)(OCC)SCSC(C)(C)C`, 88.00 °C.
The same measure for `CCSC(C)CC1CC(=O)C(/C(CC)=N/OC/C=C/Cl)=C(O)C1` (stereo unspecified): 72.00 °C; for `COc1ccc2c3c1OC1C(O)C=CC4C(C2)N(C)CCC341` (stereo unspecified): 75.00 °C.
As for `COC(C)(C)CCCC(C)C/C=C/C(C)=C/C(=O)OC(C)C` (stereo unspecified), the figure is 187.00 °C; as for `COP(=O)(OC)OC1=C(Cl)C2C=CCC12` (stereo unspecified), 165.00 °C; as for `COP(=S)(OC)Oc1nc(Cl)c(Cl)cc1Cl`, 182.00 °C.
For the molecule `COc1cc(CNC(=O)CCCC/C=C/C(C)C)ccc1O`, the flash point was determined as 113.00 °C.
Molecule `C[Si]1(C)O[Si](C)(C)O[Si](C)(C)O[Si](C)(C)O[Si](C)(C)O1` returned a flash point of 73.00 °C.
The same measure for `Cc1nn(C)c(Oc2ccccc2)c1/C=N/OCc1ccc(C(=O)OC(C)(C)C)cc1`: 85.00 °C; for `O=C(OC[C@H]1O[C@@H](OC(=O)c2cc(O)c(O)c(OC(=O)c3cc(O)c(O)c(O)c3)c2)[C@H](OC(=O)c2cc(O)c(O)c(OC(=O)c3cc(O)c(O)c(O)c3)c2)[C@@H](OC(=O)c2cc(O)c(O)c(OC(=O)c3cc(O)c(O)c(O)c3)c2)[C@@H]1OC(=O)c1cc(O)c(O)c(OC(=O)c2cc(O)c(O)c(O)c2)c1)c1cc(O)c(O)c(OC(=O)c2cc(O)c(O)c(O)c2)c1`: 199.00 °C; for `O=c1[nH]cnc2c1ncn2[C@H]1C[C@H](O)[C@@H](COP(=O)(O)OP(=O)(O)O)O1`: 229.00 °C.
For `OC[C@H]1O[C@@H](OC/C=C/c2ccccc2)[C@H](O)[C@@H](O)[C@@H]1O`, the flash point came to 187.00 °C.
As for `c1ccc(-c2ccccc2)cc1.c1ccc(Oc2ccccc2)cc1` [1,1'-biphenyl;phenoxybenzene], the figure is 124.00 °C.
Consider `ClC(Cl)=C(Cl)C(Cl)=C(Cl)Cl` [1,1,2,3,4,4-hexachlorobuta-1,3-diene], for which the flash point was found to be 90.00 °C.
In turn, `CCCCC(Cl)Cl` [1,1-dichloropentane] yielded a flash point of 41.00 °C.
The same measure for `N=C(N)N(c1ccccc1)c1ccccc1` [1,1-diphenylguanidine]: 170.00 °C; for `C1CCC2CCCCC2C1` (stereo unspecified) [1,2,3,4,4a,5,6,7,8,8a-decahydronaphthalene]: 57.00 °C; for `Cc1cc(C)c(C)c(C)c1` [1,2,3,5-tetramethylbenzene]: 63.00 °C.
As for `Clc1cccc(Cl)c1Cl` [1,2,3-trichlorobenzene], the figure is 112.00 °C.
The same measure for `Cc1cc(C)c(C)cc1C` [1,2,4,5-tetramethylbenzene]: 54.00 °C; for `Clc1ccc(Cl)c(Cl)c1` [1,2,4-trichlorobenzene]: 110.00 °C; for `Cc1ccc(C)c(C)c1` [1,2,4-trimethylbenzene]: 44.00 °C.
In turn, `C=Cc1ccccc1C=C` [1,2-bis(ethenyl)benzene] yielded a flash point of 62.00 °C.
The same measure for `ClCC(Br)CBr` (stereo unspecified) [1,2-dibromo-3-chloropropane]: 77.00 °C; for `Clc1ccc(-c2cccc(Cl)c2Cl)c(Cl)c1` [1,2-dichloro-3-(2,4-dichlorophenyl)benzene]: 141.00 °C; for `FC(F)(F)c1ccc(Cl)c(Cl)c1` [1,2-dichloro-4-(trifluoromethyl)benzene]: 65.00 °C.
The same measure for `ClC=CCl` [1,2-dichloroethene]: 4.00 °C.
`CCc1ccccc1CC` [1,2-diethylbenzene]: the flash point came out at 57.00 °C.
The same measure for `c1cc2c3c(cccc3c1)CC2` [1,2-dihydroacenaphthylene]: 125.00 °C; for `O=c1ccc(=O)[nH][nH]1` [1,2-dihydropyridazine-3,6-dione]: 300.00 °C; for `C=CCc1ccc(OC)c(OC)c1` [1,2-dimethoxy-4-prop-2-enylbenzene]: 99.00 °C.
The same measure for `Cc1ccc([N+](=O)[O-])cc1C` [1,2-dimethyl-4-nitrobenzene]: 107.00 °C.
The same measure for `NC(=Nc1ccccc1)Nc1ccccc1` [1,2-diphenylguanidine]: 198.00 °C; for `Cc1ccc(C)cc1.Cc1cccc(C)c1.Cc1ccccc1C` [1,2-xylene;1,3-xylene;1,4-xylene]: 25.00 °C.
In the case of `Clc1cc(Cl)cc(Cl)c1` [1,3,5-trichlorobenzene], the flash point was determined as 107.00 °C.
As for `Clc1cc(Cl)cc(-c2cc(Cl)cc(Cl)c2)c1` [1,3-dichloro-5-(3,5-dichlorophenyl)benzene], the figure is 141.00 °C; as for `O=[N+]([O-])c1cc(Cl)cc(Cl)c1` [1,3-dichloro-5-nitrobenzene], 140.00 °C.
`CC(Cl)=CCCl` [1,3-dichlorobut-2-ene] registered a flash point of 27.00 °C.
As for `ClCCCCl` [1,3-dichloropropane], the figure is 21.00 °C.
`CCN(C(=O)N(CC)c1ccccc1)c1ccccc1` [1,3-diethyl-1,3-diphenylurea] registered a flash point of 150.00 °C.
`Cc1cccc(C)c1[N+](=O)[O-]` [1,3-dimethyl-2-nitrobenzene] displayed a flash point of 88.00 °C.
In the case of `C1COCOC1` [1,3-dioxane], the flash point came out at 2.00 °C.
The same measure for `O=C(O)c1ccc2c(c1)C(=O)OC2=O` [1,3-dioxo-2-benzofuran-5-carboxylic acid]: 227.00 °C; for `O=C1OCCO1` [1,3-dioxolan-2-one]: 143.00 °C.
As for `c1ccc(-c2cccc(-c3ccccc3)c2)cc1` [1,3-diphenylbenzene], the figure is 191.00 °C.
The same measure for `COc1cc(Cl)c(OC)cc1Cl` [1,4-dichloro-2,5-dimethoxybenzene]: 161.00 °C; for `O=[N+]([O-])c1cc(Cl)ccc1Cl` [1,4-dichloro-2-nitrobenzene]: 135.00 °C.
With `ClCC=CCCl` [1,4-dichlorobut-2-ene], the flash point is 53.00 °C.
Turning to `ClCCCCCl` [1,4-dichlorobutane], the flash point amounted to 40.00 °C.
`c1ccc(-c2ccc(-c3ccccc3)cc2)cc1` [1,4-diphenylbenzene]: the flash point is 207.00 °C.
